The target in test [1] is T1, Wee1 kinase (Homo sapiens, UniProt P30291).
T1 construct: made in house; host or cells: Sf9 insect cells (recombinant baculovirus)
The test can be described thus: Wee1 kinase inhibitory effect (Pharmacological Test 1). It is filed as biochemical. The following applies: GST-tagged Wee1 kinase, Poly(Lys, Tyr) substrate, 10 μM ATP, 30° C. for 30 minutes. The text has this:
Pharmacological Test 1 (Wee1 Kinase Inhibitory Effect)
A cDNA of Wee1 kinase with glutathione-S-transferase (GST) fused at the amino terminal thereof was inserted into a baculovirus expression vector to construct a recombinant baculovirus, with which cells of an insect cell line Sf9 were infected to overexpress the target protein. The infected cells were collected and lysed, and then the GST-tagged Wee1 kinase protein was adsorbed to a glutathione column and eluted from the column with glutathione, and the active fraction was desalted in a desalting column to give a purified enzyme.
In measurement of the Wee1 kinase activity, a synthetic peptide, Poly(Lys, Tyr) hydrobromide (Lys:Tyr (4:1)) purchased from Sigma was used as the substrate.
The amount of the reaction mixture was 21.1 μL; and the composition of the reaction buffer was 50 mM Tris-HCl buffer (pH 7.4)/10 mM magnesium chloride/1 mM dithiothreitol. The purified Wee1 kinase, 2.5 μg of the substrate peptide, 10 μM of non-labeled adenosine triphosphate (ATP) and 1 μCi of [γ-^33P]-labeled ATP (2500 Ci/mmol or more) were added to the reaction buffer, and the resulting mixture was incubated at 30° C. for 30 minutes. Thereafter, 10 μL of 350 mM phosphate buffer was added to the reaction system to stop the reaction. The substrate peptide was adsorbed on a P81 paper filter 96-well plate and the plate was washed several times with 130 mM phosphate buffer, and the radioactivity thereof was counted using a liquid scintillation counter. The [γ-^33P]-labeled ATP was purchased from Amersham Bioscience, Ltd.
The addition of a test compound to the reaction system was carried out by preparing a series of dilutions of the compound with dimethyl sulfoxide (DMSO) and adding 1.1 μL of each dilution to the reaction system. As a control, 1.1 μL of DMSO was added to the reaction system.

The subject of test [2] is Cdc2 (Cdk1) tyrosine-15 phosphorylation in NCI-H1299 cells. Nature of the test: Inhibitory effect on Cdc2 (Cdk1) tyrosine-15 phosphorylation in cells (Pharmacological Test 2, ELISA). Type of test: cell-based. The following applies: Homo sapiens; NCI-H1299 cells pretreated with 200 nM camptothecin for 16 hours, test compound with nocodazole for 8 hours; ratio of tyrosine-15-phosphorylated Cdc2 to Cdc2. The text has this:
Pharmacological Test 2 (Method for Determining Drug Effect Using Cells (Inhibitory Effect on Cdc2 (Cdk1) Tyrosine-15 Phosphorylation))
Fetal bovine serum (FBS) was purchased from Morgate, Inc.; an RPMI-1640 medium and a DMEM medium were purchased from Invitrogen, Inc.; camptothecin was purchased from Sigma Co.; gemcitabine was purchased from Eli Lilly Japan K.K.; nocodazole and protease inhibitor cocktail were purchased from Sigma Co.; a rabbit anti-Cdc2 antibody and a mouse anti-Cdc2 antibody were purchased from Santa Cruz Biotechnology, Inc.; a rabbit anti-tyrosine-15-phosphorylated Cdc2 antibody and a horseradish peroxidase-labeled anti-mouse IgG antibody were purchased from Cell Signaling Technology, Inc.; and Sure Blue Reserve TMB peroxidase substrate was purchased from Kirkegaard & Perry Laboratories, Inc.
A human non-small cell lung cancer cell line (NCI-H1299) and a human colon cancer cell line (WiDr) can be obtained from American Type Culture Collection (ATCC).
In the method using NCI-H1299 cells, the cells were suspended in an RPMI-1640 medium supplemented with 10% FBS, and 100 μl, of the resulting cell suspension was dispensed in a Nunclon Delta treated 96-well plastic plate purchased from Nunc, Inc. at a density of 2000 cells per well, and the plate was incubated overnight at 37° C. under an atmosphere of 5% CO2 and 95% air. Camptothecin was dissolved in dimethyl sulfoxide (DMSO) and further the resulting solution was diluted with an RPMI-1640 medium supplemented with 10% FBS. Then, 50 μL of the diluted solution was added to each well of the plate in which the cells were seeded in advance such that the final concentration of camptothecin was 200 nM, and the plate was incubated at 37° C. under an atmosphere of 5% CO2 and 95% air for 16 hours. A test compound was serially diluted with DMSO, and further diluted with an RPMI-1640 medium supplemented with 10% FBS containing 4000 nM nocodazole. Then, 50 μL of the test compound solution was added to each well of the plate in which the cells treated with camptothecin were seeded, and the plate was incubated at 37° C. under an atmosphere of 5% CO2 and 95% air for 8 hours. Then, the culture medium was removed from each well and 100 μL of a cell lysis buffer was added to each well, and the plate was shaken at 4° C. for 2 hours, and thereafter the liquid in the plate was frozen at −80° C. and then thawed, which was used as a lysed cell solution. Cdc2 and tyrosine-15-phosphorylated Cdc2 in this lysed cell solution were measured by an enzyme-linked immunosorbent assay (ELISA method), and a ratio of tyrosine-15-phosphorylated Cdc2 to Cdc2 was calculated to determine a 50% effective concentration (EC50, nM) of the test compound for inhibition of phosphorylation in cells. […]

One may read the IC50 as the concentration at which inhibition is half-maximal.

T1 sequence (P30291 whole entry): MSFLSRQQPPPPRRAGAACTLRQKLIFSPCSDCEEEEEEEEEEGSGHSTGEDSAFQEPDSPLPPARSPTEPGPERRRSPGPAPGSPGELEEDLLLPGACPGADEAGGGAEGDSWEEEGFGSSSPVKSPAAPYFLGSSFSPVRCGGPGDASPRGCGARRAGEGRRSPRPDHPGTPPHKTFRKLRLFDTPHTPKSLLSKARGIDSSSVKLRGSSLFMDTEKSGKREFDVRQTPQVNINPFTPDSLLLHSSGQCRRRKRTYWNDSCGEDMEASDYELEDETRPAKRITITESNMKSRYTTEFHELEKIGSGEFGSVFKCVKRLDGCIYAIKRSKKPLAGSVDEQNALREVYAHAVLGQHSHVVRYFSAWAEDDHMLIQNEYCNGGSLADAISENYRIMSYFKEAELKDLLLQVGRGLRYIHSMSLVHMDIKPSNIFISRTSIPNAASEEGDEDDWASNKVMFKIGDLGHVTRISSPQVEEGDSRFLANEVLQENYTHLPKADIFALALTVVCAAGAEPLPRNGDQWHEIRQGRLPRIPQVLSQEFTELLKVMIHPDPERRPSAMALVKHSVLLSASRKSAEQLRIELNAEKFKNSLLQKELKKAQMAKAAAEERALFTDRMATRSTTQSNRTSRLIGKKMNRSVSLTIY

As for `CC(=O)N1CCN(c2ccc(Nc3ncc4c(=O)n(-c5c(Cl)cccc5Cl)c(=O)[nH]c4n3)cc2C)CC1` [Example 9, 7-{[4-(4-acetylpiperazin-1-yl)-3-methylphenyl]amino}-3-(2,6-dichlorophenyl)pyrimido[4,5-d]pyrimidine-2,4(1H,3H)-dione], the IC50 in test [1] amounted to 4 nM.
`COC(C)(C)C(=O)N1CCN(c2ccc(Nc3ncc4c(=O)n(-c5c(Cl)cccc5Cl)c(=O)[nH]c4n3)cc2)CC1` [Example 33, 3-(2,6-dichlorophenyl)-7-({4-[4-(2-methoxy-2-methylpropionyl)piperazin-1-yl]phenyl}amino)pyrimido[4,5-d]pyrimidine-2,4(1H,3H)-dione] had an IC50 in test [1] of 9 nM.
Take `Cc1cc(Nc2ncc3c(=O)n(-c4c(Cl)cccc4Cl)c(=O)n(C)c3n2)ccc1N1CCN(C)CC1` [Example 3, 3-(2,6-dichlorophenyl)-1-methyl-7-{[3-methyl-4-(4-methylpiperazin-1-yl)phenyl]amino}pyrimido[4,5-d]pyrimidine-2,4(1H,3H)-dione]: the values for the IC50 in test [1] and in test [2] were 8 nM and 45 nM, respectively.
`O=C(CO)N1CCN(c2ccc(Nc3ncc4c(=O)n(-c5c(Cl)cccc5Cl)c(=O)[nH]c4n3)cc2)CC1` [Example 32, 3-(2,6-dichlorophenyl)-7-({4-[4-(hydroxyacetyl)piperazin-1-yl]phenyl}amino)pyrimido[4,5-d]pyrimidine-2,4(1H,3H)-dione] registered an IC50 in test [1] of 6 nM.
With `Cc1cc(Nc2ncc3c(=O)n(-c4c(C)cccc4Cl)c(=O)[nH]c3n2)ccc1N1CCN(C)CC1` [Example 2, 3-(2-chloro-6-methylphenyl)-7-{[3-methyl-4-(4-methylpiperazin-1-yl)phenyl]amino}pyrimido[4,5-d]pyrimidine-2,4(1H,3H)-dione], the results for the IC50 in test [1] and in test [2] were 9 nM and 79 nM, respectively.
Take `CN1CCN(c2ccc(Nc3ncc4c(=O)n(-c5c(Cl)cccc5Cl)c(=O)n(C)c4n3)cc2)CC1` [Example 4, 3-(2,6-dichlorophenyl)-1-methyl-7-{[4-(4-methylpiperazin-1-yl)phenyl]amino}pyrimido[4,5-d]pyrimidine-2,4(1H,3H)-dione]: the IC50 in test [1] and in test [2] was 33 nM in each case.
Take `Cc1cc(Nc2ncc3c(=O)n(-c4c(Cl)cccc4Cl)c(=O)[nH]c3n2)ccc1N1CCN(C)CC1` [Example 1, 3-(2,6-dichlorophenyl)-7-{[3-methyl-4-(4-methylpiperazin-1-yl)phenyl]amino}pyrimido[4,5-d]pyrimidine-2,4(1H,3H)-dione]: the IC50 amounted to 7 nM in test [1] and 87 nM in test [2].
As to `CN1CCCN(c2ccc(Nc3ncc4c(=O)n(-c5c(Cl)cccc5Cl)c(=O)[nH]c4n3)cc2)CC1` [Example 31, 3-(2,6-dichlorophenyl)-7-{[4-(4-methyl-1,4-diazepan-1-yl)phenyl]amino}pyrimido[4,5-d]pyrimidine-2,4(1H,3H)-dione], the IC50 in test [1] was determined as 4 nM.

Source of the values: patent US8575179B2, “Dihydropyrazolopyrimidinone derivatives” (MSD K.K., priority 2008, dated 2013).
